Assays:
Type in all cases: in vivo
[1] = test system: spring wheat (Ekada-66 variety); assay: Spring wheat seed treatment: germination rate and plant height (laboratory, Petri dishes); conditions: spring wheat
Experimental: (§1) Control—Soaking Seeds in Water;
(§2) Experimental versions—soaking seeds in BHMPA solutions and solutions of BHMPA Ca, Mg, Na, Co, Mn, Cu, and Zn salts at 1·10^−6-1·10^−12% concentrations (doses). The studies were conducted in laboratory in Petri dishes; seed bed—two layers of filter paper. 50 seeds soaked in water (control) and in the solutions of the tested compounds (experimental) were placed into each dish. Wheat, corn, and rice seeds were exposed for one hour.
(§3) Analysis was conducted according to the government standards GOST 12038-84 “Crop seeds. Technical conditions for determining the germination energy and germination rate”, GOST 12044-93 “Crop seeds. Methods for determining disease contamination.”
(§4) Seed germination energy and rate were calculated in percent as an arithmetic mean of the four experimental results (germination energy on the 4th day, wheat germination on the 8th day, rice and corn germination—on the 7th day). Germination was determined based on the germinating power indicators (length of the roots and sprouts and their wet and dry mass per 100 shoots).
The study of the effect of pre-sowing seed treatment with BHMPA was conducted on winter wheat (Kazan-500 variety) and spring wheat (Ekada-66 variety).

[2] = test system: winter wheat (Vershin variety); assay: Winter wheat seed treatment with BHMPA salts: germination energy and germination rate; conditions: winter wheat; comparative study vs Melaphen; 1·10^−7% solution
Experimental: as §1, §2, §3, §4
(§5) The effect of pre-sowing seed treatment with the claimed BHMPA salts of biogenic metals was studied on winter wheat (Vershin variety), corn (Krasnodar 385 MV variety), and rice (Diamant variety).

[3] = test system: winter wheat (Vershin variety); assay: Winter wheat seed treatment with BHMPA salts: germinating power (length and mass of roots and sprouts); conditions: comparative study, 1·10^−7% solution
Experimental: as §2, §4, §5
(§6) The above data describe the seed viability only at the initial stage of germination, while the germination ability at the later stage of germination is defined by the initial germinating power. The method for the determination of the germinating power comprises measuring the height of the sprouts and primary roots, as well as the biomass and the dry mass thereof per 100 seedlings. [M. A. Kartuzova. Initial Germinating Power as Method of Biological Assessment of Seed Quality. Selection and Seed Farming, #2, 1953].

[4] = test system: corn (Krasnodar 385 MV variety); assay: Corn seed treatment with BHMPA salts: germination energy and germination rate; conditions: comparative study vs Melaphen, 1·10^−7% solution
Experimental: as §1, §2, §3, §4, §5

[5] = test system: corn (Krasnodar 385 MV variety); assay: Corn seed treatment with BHMPA salts: germinating power; conditions: corn seeds; solution concentration 1 · 10^−7%
Experimental: as §2, §4, §5, §6

[6] = test system: rice (Diamant variety); assay: Rice seed treatment with BHMPA salts: germination energy and germination rate
Experimental: as §1, §2, §3, §4, §5

[7] = test system: rice (Diamant variety); assay: Rice seed treatment with BHMPA salts: germinating power; conditions: rice seed treatment, comparison with Melaphen (Table XXXIII), solution 1 · 10^−8%
Experimental: as §2, §4, §5, §6

[8] = test system: winter wheat (Kazan 560 variety); assay: Field study: winter wheat seed treatment and spraying, yield and quality of the grain; conditions: for Field germination, % / Grain mass from the main ear / Number of grains in an ear / Viability, % / Yield, dt/ha: winter wheat
Experimental: Field studies were conducted for the BHMPA Mg-salt. The effect of treatment winter wheat seeds (Kazan 560 variety) with BHMPA Mg-salt solutions on the yield and quality of the grain was examined. The field experiment was conducted at a branch of a fallow rotation. The seeds were sowed on Sep. 1, 2015, in an area covering 1.7 hectares of the experimental field located at the experimental base of Tatarstan Research Institute of Agriculture. For comparison, the seeds were treated with the BHMPA Mg-salt solution and the known growth-regulator Melaphen at the same concentrations, optimum for Melaphen.
The experiment was conducted for the following variants: • 1. Control (no seed treatment); • 2. Seed treatment with the BHMPA Mg-salt solution at a 1·10^−7% concentration; • 3. Seed treatment with the BHMPA Mg-salt solution at a 1·10^−7% concentration+spraying with the BHMPA Mg-salt solution at a 1·10^−8% concentration upon vegetation during spring tillering and earing phases; • 4. Seed treatment with the growth regulator Melaphen at a 1·10^−7% concentration; • 5. Seed treatment with Melaphen at a 1·10^−7% concentration and spraying with Melaphen at a 1·10^−8% concentration upon vegetation during spring tillering and earing phases.
The seeds were treated with the experimental compounds together with a seed disinfectant at a rate of 10 ml/T. The vegetating plants were treated at a rate of 5 ml/ha. Identical field operations appropriate for that zone as well as plant protection measures against weeds and disease, were applied in all cases.
Results of field experiments with BHMPA Mg-salt as the main growth-regulating component of said pre-sowing seed treatment combined with additional treatment of winter wheat plants with other claimed BHMPA salts, are presented in Table XXXV.

[9] = rice seed treatment, solution 1 · 10^−8%
[10] = rice, comparative study vs Melaphen, 1·10^−8% solution
[11] = seed treatment 1 · 10^−7% + spraying plants with the same substance 1 · 10^−8%

Nc1nc(N)nc(N)n1.O=P(O)(CO)CO [Melaphen, melamine salt of BHMPA, reference compound]
Germination rate % 4th day ([1]; 1·10^−7% solution): 54.0%
Germination rate % 8th day ([1]; 1·10^−7% solution): 82.0%
Plant height ([1]; 1·10^−7% solution): 14.8 cm
Germination rate % 4th day ([1]; 1·10^−9% solution): 52.0%
Germination rate % 8th day ([1]; 1·10^−9% solution): 81.0%
Plant height ([1]; 1·10^−9% solution): 14.5 cm
Germination energy [2]: 95.0%
Germination rate [2]: 98.3%
Length, root [3]: 10.3 cm
Length, root, + % to control [3]: 18%
Length, sprout [3]: 7.3 cm
Length, sprout, + % to control [3]: 18%
Mass, dry, root [3]: 0.72 g/100 plantlings
Mass, dry, root, + % to control [3]: 16%
Mass, dry, sprout [3]: 0.59 g/100 plantlings
Mass, dry, sprout, + % to control [3]: 16%
Mass, wet, root [3]: 6.02 g/100 plantlings
Mass, wet, root, + % to control [3]: 66%
Mass, wet, sprout [3]: 5.27 g/100 plantlings
Mass, wet, sprout, + % to control [3]: 33%
Germination energy [4]: 90.7%
Germination rate [4]: 97.7%
Length, root [5]: 8.4 cm
Length, root, + % to control [5]: 42%
Length, sprout [5]: 4.3 cm
Length, sprout, + % to control [5]: 59%
Mass, dry, root [5]: 2.42 g/100 plantlings
Mass, dry, root, + % to control [5]: 37.5%
Mass, dry, sprout [5]: 1.86 g/100 plantlings
Mass, dry, sprout, + % to control [5]: 37%
Mass, wet, root [5]: 12.02 g/100 plantlings
Mass, wet, root, + % to control [5]: 37%
Mass, wet, sprout [5]: 10.23 g/100 plantlings
Mass, wet, sprout, + % to control [5]: 44%
Germination energy, % [6, 9]: 89.5%
Germination rate, % [6, 9]: 96.3%
Germination energy [6, 10]: 89.5%
Germination rate [6, 10]: 96.3%
Length, root [7]: 7.6 cm
Length, root, + % to control [7]: 58%
Length, sprout [7]: 4.9 cm
Length, sprout, + % to control [7]: 88%
Mass, dry, root [7]: 0.29 g/100 plantlings
Mass, dry, root, + % to control [7]: 38%
Mass, dry, sprout [7]: 0.35 g/100 plantlings
Mass, dry, sprout, + % to control [7]: 40%
Mass, wet, root [7]: 1.57 g/100 plantlings
Mass, wet, root, + % to control [7]: 60%
Mass, wet, sprout [7]: 2.62 g/100 plantlings
Mass, wet, sprout, + % to control [7]: 73.5%
yield of winter wheat ([8]; field, seeds treated at 1·10^−7% and plants sprayed with 1·10^−8%, control 21.7 dt/ha): 29.3 dt/ha
Field germination, % ([8]; seed treatment 1 · 10^−7%): 71%
Grain mass from the main ear ([8]; seed treatment 1 · 10^−7%): 1.0 g
Number of grains in an ear ([8]; seed treatment 1 · 10^−7%): 27
Viability, % ([8]; seed treatment 1 · 10^−7%): 74%
Yield, dt/ha ([8]; seed treatment 1 · 10^−7%): 28.0 dt/ha
Field germination, % [8, 11]: 71%
Grain mass from the main ear [8, 11]: 1.2 g
Number of grains in an ear [8, 11]: 30
Viability, % [8, 11]: 62%
Yield, dt/ha [8, 11]: 29.3 dt/ha

— patent US10781224B2, “Bis(oxymethyl)phosphinic acid and biogenic metal salts thereof as regulators of plant growth and development” (priority 2016, dated 2020)
